Experimental data: patent US20260234188A1, “CHEMOKINE-BINDING PEPTIDES” (Oxford University Innovation Limited, priority 2022, published 2026)
“Also recorded” adds a separate entry of the source.

System: panel of up to 42 human chemokines
Test: Phage-display next generation sequencing screen of overlapping hexadecapeptide libraries, chemokines displayed on streptavidin beads;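 also: chemokine listed when log2 fold enrichment exceeds 5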
Format: binding
Procedure, shortened: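 Phage-display libraries of 55662 overlapping hexadecapeptides from tick and viral chemokine-binding proteins, human chemokines and chemokine receptors screened against up to 42 human chemokines, with hits found by next-generation sequencing. Peptides mapped to parent-protein position with log2 fold enrichment; regions of interest where cumulative residue log2 E exceeds the 95% upper CI of the protein median.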

[1] = log2E greater than 5, chemokines named by first part of UniProt entry name, C5a (control) binders excluded
[2] = log2E greater than 5, chemokines named by first part of UniProt Entry Name
[3] = log2E greater than 5, chemokines named by first part of UniProt Entry Name, peptides binding complement C5a (control) excluded

Row | Substance | Chemokines Bound [1] | Chemokines Bound [2] | further results
1 | CR20762 (SIYLLNLAISDLLFLF) | CCL22, CCL28,; also recorded: CXL10, CXL11,; also recorded: SDF1, CXL13,; also recorded: CXL14, IL8 |  | 
2 | CR21349: chemokine binding peptide of Table 5A used in FIG. 5 combinations (SNVTFTGLISAFSWFM) | CCL11, CCL2,; also recorded: CCL3, CCL4,; also recorded: CCL5, CCL8 |  | 
3 | CR24989 (VITFCLYVGQFLAYVR) |  | CCL17, CCL18,; also recorded: CCL19, CCL20,; also recorded: CCL25, X3CL1,; also recorded: CXL10, SDF1,; also recorded: CXL14 | 
4 | CR27677 (YSAFLSGMTSLLLVLL) |  | CCL17, CCL18,; also recorded: CCL20, CCL25,; also recorded: CXL10, CXL14 | 
5 | CR5055 (FFYYLYVYLDIFSVVA) |  | CCL18, CCL2, and CCL22, CXL10, and SDF1 | 
6 | CR7000 (GIFFIILLTIDRYLAV) |  |  | Chemokines Bound [3]: CCL17, X3CL1,; also recorded: CXL10
7 | CR4760 (FASFYLLDFILALVGN) |  | CCL22, CXL10,; also recorded: CXL11, SDF1,; also recorded: CXL13, IL8 | 
8 | CR6044 (FSALVTLITSLFGSIF) |  |  | Chemokines Bound [3]: CCL2, X3CL1,; also recorded: CXL10, IL8
9 | CR21284 (SMVIWVLAFFLSSPSL) | CCL1, CCL18,; also recorded: CCL20 |  | 
10 | CR20068 (SAVLTLKVILGFFLPF) | CCL17, CCL18,; also recorded: CCL20, CCL25,; also recorded: CCL28, CXL11 |  | 
11 | CR22272 (SWKVLLTLVWGAAPVI) | CCL17, CCL18,; also recorded: CCL20, CCL22,; also recorded: CCL25, CCL28,; also recorded: X3CL1, CXL10,; also recorded: CXL11, SDF1,; also recorded: CXL14, IL8 |  | 
12 | CR20429 (SFYISLFAGVSFLINL) | CCL22, CCL25,; also recorded: CXL10, CXL11 |  | 
13 | CR7666 (GSVSLVNLLTIIGCLW) |  |  | Chemokines Bound [3]: CCL17, CCL20,; also recorded: CCL25
14 | CR11907: chemokine binding peptide of Table 5A used in FIG. 5 combinations (LDFILALVGNTLALWL) | CCL11, CCL18, and CCL2 |  | 
15 | VP4048 (IILLVYVYATFATKGI) |  |  | Chemokines Bound [3]: CCL1, CCL5,; also recorded: CCL8, X3CL1,; also recorded: CXL10, CXL11,; also recorded: CXL13, IL8
16 | CK3750 (PEWVNTPSTCCLKYYE) | CCL18, CCL19,; also recorded: CCL22, X3CL1 |  | 
17 | CR22747 (TFKILICIVWGVMPVV) | CCL1, CCL17,; also recorded: CCL18, CCL20,; also recorded: CCL22, CCL28,; also recorded: X3CL1, CXL10,; also recorded: SDF1, CXL13,; also recorded: CXL14 |  | 
18 | CR10681 (KIIFSYVVVFLVAWLP) | CCL25, CCL28, and SDF1 |  | 
19 | CR6324 (FTWNLVLSQFFSILAT) |  |  | Chemokines Bound [3]: CCL11, CCL28,; also recorded: X3CL1, CXL11,; also recorded: CXL13

Row | Substance | Chemokines Bound [1] | Chemokines Bound [2] | further results
20 | CR20433 VP8386 (SFYVAMFASLSFITEI) | CCL1, X3CL1, and CXL10, CXL11, and IL8 |  | 
21 | CR25357 (VLTLKVILGFFLPFVV) |  | CCL1, CCL17,; also recorded: CCL18, CCL19,; also recorded: CCL28, CXL10,; also recorded: CXL11, SDF1,; also recorded: CXL13, CXL14 | 
22 | CR9192 (IISLVVWGLSVIISSS) |  |  | Chemokines Bound [3]: CCL18, CXL10, and CXL13, CXL14, and IL8
23 | CR6041 (FSAILLYIDDFSAYFS) |  |  | Chemokines Bound [3]: CCL17, CCL18,; also recorded: X3CL1, IL8
24 | CR27514 (YLYVYLDIFSVVSVSL) |  | CCL1, CCL19, and SDF1 | 
25 | CR26592 (WKLLAEIYEYLFFFSF) |  | CCL19, CCL20,; also recorded: CCL22, CXL14 | 
26 | CR18714 (QYLKAFLAAVLGWHLA) | CCL18, CCL28,; also recorded: CXL13, CXL14 |  | 
27 | CR24960 (VIMMTWFYAFFYSTVQ) |  | CCL1, CCL17,; also recorded: CCL18, CCL2,; also recorded: CCL22, CCL25,; also recorded: CCL28, CCL5,; also recorded: X3CL1, CXL11,; also recorded: CXL13, IL8 | 
28 | CR2051 (ATYMLLVLYYAMLPLM) | CCL20, CCL22,; also recorded: CCL28, X3CL1,; also recorded: CXL10, SDF1,; also recorded: CXL14, IL8 |  | 
29 | CR13605 (LMFMIFAYTFIVKTLV) | CCL17, CCL18,; also recorded: CCL20, CCL22,; also recorded: CXL10 |  | 
30 | CR9111 (IIFSYVVVFLVAWLPY) |  |  | Chemokines Bound [3]: CCL20, CCL22,; also recorded: CCL28, CXL11,; also recorded: CXL13
31 | CR26308 (VWLMCIVGTFLNVLVI) |  | CCL18, CCL20, and CCL22, CCL28, and CXL10, CXL11, and SDF1 | 
32 | CR11478 (LAFIYVLMFLANAIGN) | CCL1, CCL20,; also recorded: CXL11, SDF1,; also recorded: CXL13, CXL14 |  | 
33 | CR23443 (TNWKLLAEIYEYLFFF) |  | CCL17, CCL18,; also recorded: X3CL1, CXL10,; also recorded: CXL13 | 
34 | CR4135 (EIYEYLFFFSFFFLAL) |  | CCL20, CCL25,; also recorded: CXL11, CXL13 | 
35 | CR27049 (YDLFIGIKIVYAFLWG) |  | CCL1, CCL18, and CCL22, CCL25, and IL8 | 
36 | CR25151 (VLGDFLCKLLNMIFSI) |  | CCL18, CCL2, and CCL28, X3CL1, and CXL10, CXL14, and IL8 | 
37 | CR6623 (FYYIGFYSSMFFITLM) |  |  | Chemokines Bound [3]: CCL1, CCL17,; also recorded: CCL18, CCL19,; also recorded: CCL20, CCL22,; also recorded: CCL28, X3CL1,; also recorded: CXL10, CXL11,; also recorded: SDF1, CXL14
38 | CR22271 (SWIISFSVWMAAILLS) | CCL1, CCL17,; also recorded: CXL10 |  | 

Row | Substance | Chemokines Bound [1] | Chemokines Bound [2] | further results
39 | CR20486: chemokine binding peptide of Table 5A used in FIG. 5 combinations (SGIITSVLAWVTAILA) | CCL11, CCL2,; also recorded: CCL8, IL8 |  | 
40 | CR13203 (LLIMLFSYGFTLRTLF) | CCL18, CCL22, and CCL28, X3CL1, and SDF1 |  | 
41 | CR14548 (LTGFLFYLNMYASIYF) | CCL18, CCL19, and CCL22, CCL28, and CXL10, CXL11, and SDF1, CXL13, and IL8 |  | 
42 | CR8813 (IFFIILLTIDRYLAVV) |  |  | Chemokines Bound [3]: CCL17, CCL18,; also recorded: CCL20, CCL25,; also recorded: CCL28, CXL10,; also recorded: CXL11, CXL13,; also recorded: CXL14, IL8
43 | CR8655 (IAVFGLLGNILVVITF) |  |  | Chemokines Bound [3]: CCL17, CCL22,; also recorded: CCL25, IL8
44 | EB2053 (KSDVYELFTVEYCGTN) |  |  | Chemokines Bound [3]: CXL10, CXL11,; also recorded: CXL13
45 | CR498 (AFLWGIFPTVIFSYFY) |  | CCL17, CCL18,; also recorded: CCL19, CCL20,; also recorded: CCL25, CXL13 | 
46 | CR26633 (WLMSIVGTFLNMLVIT) |  | CCL11, CCL17,; also recorded: CCL18, CCL19,; also recorded: CCL20, CCL22,; also recorded: CCL25, CCL28,; also recorded: X3CL1, CXL10 | 
47 | CR26041 (VTSVITWLVAVFASVP) |  | CCL2, X3CL1,; also recorded: CXL11, IL8 | 
48 | CR12330 (LFVMLFSYGFTLRTLF) | CCL17, CCL18, and CCL20, CCL22, and CCL28, CXL14, and IL8 |  | 
49 | CR5775 (FMIFAYTFIVKTLVQA) |  |  | Chemokines Bound [3]: CCL17, CCL18, and CCL28, X3CL1, and CXL11, SDF1, and CXL13, CXL14, and IL8
50 | CR26801 (WVFIFSSIQLCTVVFL) |  | CCL1, CCL17,; also recorded: CCL18, CCL19,; also recorded: CCL20, CCL28,; also recorded: X3CL1, SDF1 | 
51 | CR3161 (DFSAILLYIDDFSAYF) |  | CCL17, CCL18,; also recorded: X3CL1, CXL10,; also recorded: SDF1, CXL13,; also recorded: CXL14 | 
52 | CR24594 (VFLLSLVGNSLVLWVL) |  | CCL22, X3CL1, and CXL11, CXL13, and IL8 | 
53 | CR9889 (ISLLAEVLMFLFPNII) |  |  | Chemokines Bound [3]: CCL17, CCL18,; also recorded: CCL20, CCL25,; also recorded: CCL28, CXL13
54 | CR23112 (TLFASDFVLMWCVFFM) |  | CCL17, CCL19,; also recorded: CCL20, CCL22,; also recorded: CCL8, X3CL1 | 
55 | CK1982 (IFKTIVAKEICADPKQ) | CCL1, CCL22,; also recorded: CCL5, X3CL1,; also recorded: CXL10, CXL13 |  | 
56 | EB936 (EKSDEYELFTVEYCGT) |  |  | Chemokines Bound [3]: CXL10, CXL11,; also recorded: SDF1, CXL13
57 | VP11669 (YSLVFVILMCIPFSFQ) |  |  | Chemokines Bound [3]: X3CL1, CXL10,; also recorded: CXL11, IL8
